# Data from US20180282323A1, “Mesoionic imidazole derivatives as insecticides” (BAYER CROPSCIENCE AKTIENGESELLSCHAFT, priority 2015, published 2018).
# Read-outs that look alike come from different tables or passages of the source.
# Columns and labels:
# [1] = log P by HPLC on reversed-phase column (EEC directive 79/831 Annex V.A8); type: physicochemical
# In short: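 Determined per EEC directive 79/831 Annex V.A8 by HPLC on a reversed-phase C18 column at 43° C.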
# Myzus persicae [2] = assay: Myzus persicae oral test; type: in vivo; settings: application rate 20 ppm, oral uptake through parafilm, after 5 days; for pest or weed control at 20 ppm: Myzus persicae, 120 h, read-out: efficacy
# In short: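 Compound dissolved in acetone, diluted with water, then mixed into IPL41 insect medium with sugar in microtitre plates under parafilm. Mixed-population green peach aphids fed through the membrane; % mortality scored after 5 days (100% = all killed).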
# Tetranychus urticae = Tetranychus urticae spray test, OP-resistant; type: in vivo; settings: application rate 500 g/ha, bean leaf discs, all stages, after 6 days
# Method: Tetranychus urticae—Spray Test, OP-Resistant Solvent: 78.0 parts by weight of acetone • • 1.5 parts by weight of dimethylformamide Emulsifier: alkylaryl polyglycol ether
# (§1) To produce a suitable active ingredient formulation, 1 part by weight of active ingredient is dissolved with the stated parts by weight of solvent and made up with water containing an emulsifier concentration of 1000 ppm until the desired concentration is attained. To produce further test concentrations, the formulation is diluted with emulsifier-containing water.
# Discs of bean leaves (Phaseolus vulgaris) infested with all stages of the greenhouse red spider mite (Tetranychus urticae) are sprayed with an active ingredient formulation of the desired concentration.
# After 6 days, the efficacy in % is determined. 100% means that all the spider mites have been killed; 0% means that no spider mites have been killed.
# Myzus persicae [3] = assay: Myzus persicae spray test (bell pepper plants); type: in vivo; settings: application rate 100 ppm, after 6 days
# Method: Myzus persicae—Spray Test Solvent: 14 parts by weight of dimethylformamide Emulsifier: alkylaryl polyglycol ether
# as §1, with “water. If the addition of ammonium salts or/and penetrants is required, these are each added in a concentration of 1000 ppm to the formulation solution.” for “water.”
# Bell pepper plants (Capsicum annuum) severely infested with the green peach aphid (Myzus persicae) are treated by spraying with the active ingredient formulation in the desired concentration.
# After 6 days, the kill in % is determined. 100% means that all of the aphids have been killed; 0% means that none of the aphids have been killed.
# Myzus persicae [4] = assay: Myzus persicae spray test (Chinese cabbage leaf discs); type: in vivo; settings: application rate 500 g/ha, after 6 days
# In short: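 Active ingredient was formulated in acetone/DMF and diluted with water containing 1000 ppm emulsifier. Chinese cabbage leaf discs infested with all aphid stages were sprayed, and % kill was scored after 6 days (100% = all aphids dead).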
# Boophilus microplus = Boophilus microplus injection test; type: in vivo; settings: application rate 20 μg/animal, assessed after 7 days by laying of fertile eggs
# Method: Boophilus microplus—Injection Test Solvent: dimethyl sulphoxide
# To produce a suitable active ingredient formulation, 10 mg of active ingredient are mixed with 0.5 ml of solvent and the concentrate is diluted with solvent to the desired concentration.
# 1 μl of the active ingredient solution is injected into the abdomen of 5 engorged adult female cattle ticks (Boophilus microplus). The animals are transferred into dishes and kept in a climate-controlled room.
# Efficacy is assessed after 7 days by laying of fertile eggs. Eggs which are not visibly fertile are stored in a climate-controlled cabinet until the larvae hatch after about 42 days. An efficacy of 100% means that none of the ticks has laid any fertile eggs; 0% means that all the eggs are fertile.
# Ctenocephalides felis [5] = assay: Ctenocephalides felis in vitro contact test with adult cat fleas; type: in vivo; settings: application rate 5 μg/cm^2, after 48 h, adult cat fleas dead or moribund
# Method: Ctenocephalides felis—In Vitro Contact Tests with Adult Cat Fleas
# For the coating of the test tubes, 9 mg of active ingredient are first dissolved in 1 ml of acetone p.a. and then diluted to the desired concentration with acetone p.a. 250 μl of the solution are distributed homogeneously on the inner walls and the base of a 25 ml test tube by turning and rocking on an orbital shaker (rocking rotation at 30 rpm for 2 h). With 900 ppm of active ingredient solution and internal surface area 44.7 cm^2, given homogeneous distribution, an area-based dose of 5 μg/cm^2 is achieved.
# After the solvent has evaporated off, the tubes are populated with 5-10 adult cat fleas (Ctenocephalides felis), sealed with a perforated plastic lid and incubated in a horizontal position at room temperature and ambient humidity. After 48 h, efficacy is determined. To this end, the test tubes are stood upright and the fleas are knocked to the base of the tube. Fleas which remain motionless at the base or move in an uncoordinated manner are considered to be dead or moribund.
# 100% efficacy means that all the fleas were dead or moribund. 0% efficacy means that no fleas were harmed.
# Lucilia cuprina = Lucilia cuprina test; type: in vivo; settings: application rate 100 ppm, L1 larvae, after 2 days
# Method: Lucilia cuprina Test Solvent: dimethyl sulphoxide
# (§2) To produce a suitable active ingredient formulation, 10 mg of active ingredient are mixed with 0.5 ml of dimethyl sulphoxide, and the concentrate is diluted with water to the desired concentration.
# About 20 L1 larvae of the Australian sheep blowfly (Lucilia cuprina) are transferred into a test vessel containing minced horsemeat and the active ingredient formulation of the desired concentration.
# After 2 days, the kill in % is determined. 100% means that all the larvae have been killed; 0% means that no larvae have been killed.
# Musca domestica = Musca domestica test; type: in vivo; settings: application rate 100 ppm, adult houseflies, after 2 days
# Method: Musca domestica Test Solvent: dimethyl sulphoxide
# as §2
# Vessels containing a sponge treated with sugar solution and the active ingredient formulation of the desired concentration are populated with 10 adult houseflies (Musca domestica).
# After 2 days, the kill in % is determined. 100% means that all of the flies have been killed; 0% means that none of the flies have been killed.
# Ctenocephalides felis [6] = assay: Ctenocephalides felis oral test; type: in vivo; settings: application rate 100 ppm in citrated cattle blood, after 2 days
# Method: Ctenocephalides felis—Oral Test Solvent: dimethyl sulphoxide
# For the purpose of production of a suitable active ingredient formulation, 10 mg of active ingredient are mixed with 0.5 ml of dimethyl sulphoxide. Dilution with citrated cattle blood gives the desired concentration.
# About 20 unfed adult cat fleas (Ctenocephalides felis) are placed into a chamber which is closed at the top and bottom with gauze. A metal cylinder whose bottom end is closed with parafilm is placed onto the chamber. The cylinder contains the blood/active ingredient formulation, which can be imbibed by the fleas through the parafilm membrane.
# After 2 days, the kill in % is determined. 100% means that all of the fleas have been killed; 0% means that none of the fleas have been killed.
# Diabrotica balteata = Diabrotica balteata spray test; type: in vivo; settings: application rate 160 μg/well, wheat grains with beetle larvae, after 7 days
# In short: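 Compound in acetone/DMF with emulsifier water sprayed onto wheat seedlings germinated one day on agar, 5 grains per well. Each well then infested with 10-20 Diabrotica balteata larvae. Efficacy scored after 7 days: 100% = plant growth as uninfected control, 0% = no plants grown.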
# [7] = HPLC on reversed-phase column (footnote a)
"chromatographic logP ([1]; reversed-phase C18 HPLC column, pH 2.7, HPLC on reversed-phase column (footnote a), read-out: log p)","chromatographic logP ([1]; reversed-phase C18 HPLC column, HPLC-MS, reversed-phase C18, 43° C., calibration with alkan-2-ones, read-out: log P)",Structure (SMILES),chromatographic logP [1],chromatographic logP ([1]; pH 2.7),pest or weed control at 20 ppm (Myzus persicae [2]),efficacy (Tetranychus urticae),efficacy (kill in %) (Myzus persicae [3]),efficacy (Myzus persicae [4]),efficacy (Boophilus microplus),efficacy (Ctenocephalides felis [5]),efficacy (kill in %) (Lucilia cuprina),"log p [1, 7]",efficacy (Myzus persicae [2]),efficacy (kill in %) (Musca domestica),efficacy (kill in %) (Ctenocephalides felis [6]),efficacy (Diabrotica balteata)
–,–,"O=C(CCl)c1c([O-])n(Cc2cnc(Cl)s2)c2cccc[n+]12 [Example I-1-002, 3-(Chloroacetyl)-1-[(2-chloro-1,3-thiazol-5-yl)methyl]-1H-imidazo[1,2-a]pyridin-4-ium-2-olate]",1.69,1.69,100%,90%,90%,–,–,–,–,–,–,–,–,–
–,–,COCC(=O)c1c([O-])n(Cc2ccc(Cl)nc2)c2cccc[n+]12 [Example I-1-003],–,–,–,–,–,100%,80%,100%,100%,1.18,100%,80%,95%,–
–,–,"COCC(=O)c1c([O-])n(Cc2cnc(Cl)s2)c2cccc[n+]12 [Example I-1-008, 1-[(2-Chloro-1,3-thiazol-5-yl)methyl]-3-(methoxyacetyl)-1H-imidazo[1,2-a]pyridin-4-ium-2-olate]",1.23,1.23,100%,–,–,100%,100%,–,90%,–,–,100%,–,100%
1.47,1.47,"O=C(Cn1cccn1)c1c([O-])n(Cc2cnc(Cl)s2)c2cccc[n+]12 [Example I-1-009, 1-[(2-Chloro-1,3-thiazol-5-yl)methyl]-3-(1H-pyrazol-1-ylacetyl)-1H-imidazo[1,2-a]pyridin-4-ium-2-olate]",–,–,100%,90%,–,90%,100%,–,100%,–,–,–,–,–
–,–,O=C(Cn1cncn1)c1c([O-])n(Cc2cnc(Cl)s2)c2cccc[n+]12 [Example I-1-014],–,–,–,90%,–,–,–,–,–,1.1,100%,–,–,–
–,–,O=C(COc1ccccc1)c1c([O-])n(Cc2cnc(Cl)s2)c2cccc[n+]12 [Example I-1-017],–,–,–,90%,–,–,–,–,–,2.34,100%,–,–,–
–,–,O=C(CCl)c1c([O-])n(Cc2cncnc2)c2cccc[n+]12 [Example I-1-019],–,–,–,90%,–,–,–,–,–,0.77,–,–,–,–
–,–,CCOCC(=O)c1c([O-])n(Cc2cnc(Cl)s2)c2cccc[n+]12 [Example I-1-032],–,–,–,–,100%,–,–,100%,90%,1.57,100%,100%,–,100%
–,–,CCCOCC(=O)c1c([O-])n(Cc2cnc(Cl)s2)c2cccc[n+]12 [Example I-1-033],–,–,–,–,100%,–,80%,90%,90%,1.92,100%,100%,–,100%
–,–,CSCC(=O)c1c([O-])n(Cc2cnc(Cl)s2)c2cccc[n+]12 [Example I-1-034],–,–,–,–,–,90%,80%,–,100%,1.73,100%,80%,–,100%
–,–,"O=C(NC1CC1)c1c([O-])n(Cc2cnc(Cl)s2)c2cccc[n+]12 [Example I-1-111, 1-[(2-Chloro-1,3-thiazol-5-yl)methyl]-3-(cyclopropylcarbamoyl)-1H-imidazo[1,2-a]pyridin-4-ium-2-olate]",1.63,1.63,100%,–,–,100%,–,100%,100%,–,–,100%,–,100%
–,–,O=C(NCC(F)(F)F)c1c([O-])n(Cc2cnc(Cl)s2)c2cccc[n+]12 [Example I-1-137],–,–,–,90%,95%,–,–,–,95%,2.08,100%,–,–,100%
